Measured values taken from patent publication US20130216666A1, “CASHEW NUT SHELL LIQUID WITH IMPROVED STABILITY” (IDEMITSU KOSAN CO., LTD., priority 2010, published 2013).
Read-outs that look alike come from different tables or passages of the source. Each block holds one compound with its values, some of them ahead of it.

Key:
[1] = Inhibition of decarboxylation reaction when organic acid chelating agent was added (HPLC); type: physicochemical; conditions: 80° C.
[2] = 80° C.; for inhibition of the decarboxylation: a day
Description: The EDTA was prepared as a 10% aqueous solution for the addition.
Samples were taken from the beakers after a day and analyzed for composition by HPLC.

[3] = 80° C.
Description: The glycine was prepared as a 10% aqueous solution for the addition.
Samples were taken from the beakers after 6 days and analyzed for composition by HPLC.

[4] = 2% by weight in unheated CNSL, Day 0
[5] = 2% by weight in unheated CNSL, Day 6
[6] = 10% by weight in unheated CNSL, Day 0
[7] = 10% by weight in unheated CNSL, Day 6
[8] = 1% by weight in unheated CNSL, Day 0
[9] = 1% by weight in unheated CNSL, Day 1
[10] = 5% by weight in unheated CNSL, Day 0
[11] = 5% by weight in unheated CNSL, Day 1
[12] = 1% by weight in unheated CNSL, Day 6

Anacardic Acid 15:1 Composition (%) [1, 4]: 39.93%
Anacardic Acid 15:1 concentration [1, 4]: 321.20 ppm
Anacardic Acid 15:2 Composition (%) [1, 4]: 14.22%
Anacardic Acid 15:2 concentration [1, 4]: 114.37 ppm
Anacardic Acid 15:3 Composition (%) [1, 4]: 33.03%
Anacardic Acid 15:3 concentration [1, 4]: 265.67 ppm
Cardanol 15:1 Composition (%) [1, 4]: 5.30%
Cardanol 15:1 concentration [1, 4]: 42.62 ppm
Cardanol 15:2 Composition (%) [1, 4]: 2.27%
Cardanol 15:2 concentration [1, 4]: 18.28 ppm
Cardanol 15:3 Composition (%) [1, 4]: 5.26%
Cardanol 15:3 concentration [1, 4]: 42.29 ppm
Anacardic Acid 15:1 Composition (%) [1, 5]: 30.38%
Anacardic Acid 15:1 concentration [1, 5]: 258.72 ppm
Anacardic Acid 15:2 Composition (%) [1, 5]: 10.45%
Anacardic Acid 15:2 concentration [1, 5]: 88.98 ppm
Anacardic Acid 15:3 Composition (%) [1, 5]: 24.29%
Anacardic Acid 15:3 concentration [1, 5]: 206.87 ppm
Cardanol 15:1 Composition (%) [1, 5]: 15.35%
Cardanol 15:1 concentration [1, 5]: 130.72 ppm
Cardanol 15:2 Composition (%) [1, 5]: 5.81%
Cardanol 15:2 concentration [1, 5]: 49.51 ppm
Cardanol 15:3 Composition (%) [1, 5]: 13.71%
Cardanol 15:3 concentration [1, 5]: 116.77 ppm
Anacardic Acid 15:1 Composition (%) [1, 6]: 39.28%
Anacardic Acid 15:1 concentration [1, 6]: 270.21 ppm
Anacardic Acid 15:2 Composition (%) [1, 6]: 14.28%
Anacardic Acid 15:2 concentration [1, 6]: 98.21 ppm
Anacardic Acid 15:3 Composition (%) [1, 6]: 33.24%
Anacardic Acid 15:3 concentration [1, 6]: 228.68 ppm
Cardanol 15:1 Composition (%) [1, 6]: 5.47%
Cardanol 15:1 concentration [1, 6]: 37.65 ppm
Cardanol 15:2 Composition (%) [1, 6]: 2.39%
Cardanol 15:2 concentration [1, 6]: 16.44 ppm
Cardanol 15:3 Composition (%) [1, 6]: 5.33%
Cardanol 15:3 concentration [1, 6]: 36.70 ppm
Anacardic Acid 15:1 Composition (%) [1, 7]: 37.43%
Anacardic Acid 15:1 concentration [1, 7]: 229.25 ppm
Anacardic Acid 15:2 Composition (%) [1, 7]: 13.73%
Anacardic Acid 15:2 concentration [1, 7]: 84.08 ppm
Anacardic Acid 15:3 Composition (%) [1, 7]: 31.28%
Anacardic Acid 15:3 concentration [1, 7]: 191.59 ppm
Cardanol 15:1 Composition (%) [1, 7]: 7.28%
Cardanol 15:1 concentration [1, 7]: 44.57 ppm
Cardanol 15:2 Composition (%) [1, 7]: 3.41%
Cardanol 15:2 concentration [1, 7]: 20.90 ppm
Cardanol 15:3 Composition (%) [1, 7]: 6.87%
Cardanol 15:3 concentration [1, 7]: 42.08 ppm
Compound: O=C(O)CC(O)C(=O)O (stereo not drawn) [Malic Acid, malic acid]

Anacardic Acid 15:1 Composition (%) [2, 8]: 35.11%
Anacardic Acid 15:1 concentration [2, 8]: 107.38 ppm
Anacardic Acid 15:2 Composition (%) [2, 8]: 14.05%
Anacardic Acid 15:2 concentration [2, 8]: 42.98 ppm
Anacardic Acid 15:3 Composition (%) [2, 8]: 33.26%
Anacardic Acid 15:3 concentration [2, 8]: 101.71 ppm
Cardanol 15:1 Composition (%) [2, 8]: 7.60%
Cardanol 15:1 concentration [2, 8]: 23.26 ppm
Cardanol 15:2 Composition (%) [2, 8]: 3.09%
Cardanol 15:2 concentration [2, 8]: 9.45 ppm
Cardanol 15:3 Composition (%) [2, 8]: 6.88%
Cardanol 15:3 concentration [2, 8]: 21.05 ppm
Anacardic Acid 15:1 Composition (%) [2, 9]: 27.63%
Anacardic Acid 15:1 concentration [2, 9]: 61.63 ppm
Anacardic Acid 15:2 Composition (%) [2, 9]: 11.56%
Anacardic Acid 15:2 concentration [2, 9]: 25.79 ppm
Anacardic Acid 15:3 Composition (%) [2, 9]: 26.75%
Anacardic Acid 15:3 concentration [2, 9]: 59.67 ppm
Cardanol 15:1 Composition (%) [2, 9]: 15.11%
Cardanol 15:1 concentration [2, 9]: 33.70 ppm
Cardanol 15:2 Composition (%) [2, 9]: 5.60%
Cardanol 15:2 concentration [2, 9]: 12.49 ppm
Cardanol 15:3 Composition (%) [2, 9]: 13.34%
Cardanol 15:3 concentration [2, 9]: 29.75 ppm
inhibition of the decarboxylation ([2]; 1% by weight): moderate inhibition
Anacardic Acid 15:1 Composition (%) [2, 10]: 35.11%
Anacardic Acid 15:1 concentration [2, 10]: 107.38 ppm
Anacardic Acid 15:2 Composition (%) [2, 10]: 14.05%
Anacardic Acid 15:2 concentration [2, 10]: 42.98 ppm
Anacardic Acid 15:3 Composition (%) [2, 10]: 33.26%
Anacardic Acid 15:3 concentration [2, 10]: 101.71 ppm
Cardanol 15:1 Composition (%) [2, 10]: 7.60%
Cardanol 15:1 concentration [2, 10]: 23.26 ppm
Cardanol 15:2 Composition (%) [2, 10]: 3.09%
Cardanol 15:2 concentration [2, 10]: 9.45 ppm
Cardanol 15:3 Composition (%) [2, 10]: 6.88%
Cardanol 15:3 concentration [2, 10]: 21.05 ppm
Anacardic Acid 15:1 Composition (%) [2, 11]: 29.16%
Anacardic Acid 15:1 concentration [2, 11]: 101.34 ppm
Anacardic Acid 15:2 Composition (%) [2, 11]: 11.39%
Anacardic Acid 15:2 concentration [2, 11]: 39.59 ppm
Anacardic Acid 15:3 Composition (%) [2, 11]: 27.51%
Anacardic Acid 15:3 concentration [2, 11]: 95.61 ppm
Cardanol 15:1 Composition (%) [2, 11]: 14.21%
Cardanol 15:1 concentration [2, 11]: 49.37 ppm
Cardanol 15:2 Composition (%) [2, 11]: 5.34%
Cardanol 15:2 concentration [2, 11]: 18.56 ppm
Cardanol 15:3 Composition (%) [2, 11]: 12.39%
Cardanol 15:3 concentration [2, 11]: 43.07 ppm
inhibition of the decarboxylation ([2]; 5% by weight): significant inhibition
Compound: O=C(O)CN(CCN(CC(=O)O)CC(=O)O)CC(=O)O [EDTA, ethylenediamine tetraacetic acid]

Anacardic Acid 15:1 Composition (%) [3, 8]: 40.00%
Anacardic Acid 15:1 concentration [3, 8]: 346.59 ppm
Anacardic Acid 15:2 Composition (%) [3, 8]: 13.66%
Anacardic Acid 15:2 concentration [3, 8]: 118.36 ppm
Anacardic Acid 15:3 Composition (%) [3, 8]: 32.88%
Anacardic Acid 15:3 concentration [3, 8]: 284.89 ppm
Cardanol 15:1 Composition (%) [3, 8]: 5.65%
Cardanol 15:1 concentration [3, 8]: 48.94 ppm
Cardanol 15:2 Composition (%) [3, 8]: 2.42%
Cardanol 15:2 concentration [3, 8]: 20.93 ppm
Cardanol 15:3 Composition (%) [3, 8]: 5.40%
Cardanol 15:3 concentration [3, 8]: 46.76 ppm
Anacardic Acid 15:1 Composition (%) [3, 12]: 23.47%
Anacardic Acid 15:1 concentration [3, 12]: 78.82 ppm
Anacardic Acid 15:2 Composition (%) [3, 12]: 8.29%
Anacardic Acid 15:2 concentration [3, 12]: 27.85 ppm
Anacardic Acid 15:3 Composition (%) [3, 12]: 18.80%
Anacardic Acid 15:3 concentration [3, 12]: 63.14 ppm
Cardanol 15:1 Composition (%) [3, 12]: 21.95%
Cardanol 15:1 concentration [3, 12]: 73.71 ppm
Cardanol 15:2 Composition (%) [3, 12]: 7.93%
Cardanol 15:2 concentration [3, 12]: 26.64 ppm
Cardanol 15:3 Composition (%) [3, 12]: 19.54%
Cardanol 15:3 concentration [3, 12]: 65.62 ppm
inhibition of the decarboxylation ([3]; 1 and 10% by weight, 6 days): subtle inhibition
Anacardic Acid 15:1 Composition (%) [3, 6]: 40.00%
Anacardic Acid 15:1 concentration [3, 6]: 346.59 ppm
Anacardic Acid 15:2 Composition (%) [3, 6]: 13.66%
Anacardic Acid 15:2 concentration [3, 6]: 118.36 ppm
Anacardic Acid 15:3 Composition (%) [3, 6]: 32.88%
Anacardic Acid 15:3 concentration [3, 6]: 284.89 ppm
Cardanol 15:1 Composition (%) [3, 6]: 5.65%
Cardanol 15:1 concentration [3, 6]: 48.94 ppm
Cardanol 15:2 Composition (%) [3, 6]: 2.42%
Cardanol 15:2 concentration [3, 6]: 20.93 ppm
Cardanol 15:3 Composition (%) [3, 6]: 5.40%
Cardanol 15:3 concentration [3, 6]: 46.76 ppm
Anacardic Acid 15:1 Composition (%) [3, 7]: 28.28%
Anacardic Acid 15:1 concentration [3, 7]: 94.58 ppm
Anacardic Acid 15:2 Composition (%) [3, 7]: 9.99%
Anacardic Acid 15:2 concentration [3, 7]: 33.42 ppm
Anacardic Acid 15:3 Composition (%) [3, 7]: 22.66%
Anacardic Acid 15:3 concentration [3, 7]: 75.77 ppm
Cardanol 15:1 Composition (%) [3, 7]: 17.35%
Cardanol 15:1 concentration [3, 7]: 58.02 ppm
Cardanol 15:2 Composition (%) [3, 7]: 6.27%
Cardanol 15:2 concentration [3, 7]: 20.97 ppm
Cardanol 15:3 Composition (%) [3, 7]: 15.45%
Cardanol 15:3 concentration [3, 7]: 51.65 ppm
Compound: NCC(=O)O [Glycine, glycine]

Anacardic Acid 15:1 Composition (%) [1, 4]: 42.00%
Anacardic Acid 15:1 concentration [1, 4]: 351.16 ppm
Anacardic Acid 15:2 Composition (%) [1, 4]: 13.27%
Anacardic Acid 15:2 concentration [1, 4]: 110.99 ppm
Anacardic Acid 15:3 Composition (%) [1, 4]: 31.29%
Anacardic Acid 15:3 concentration [1, 4]: 261.63 ppm
Cardanol 15:1 Composition (%) [1, 4]: 5.69%
Cardanol 15:1 concentration [1, 4]: 47.57 ppm
Cardanol 15:2 Composition (%) [1, 4]: 2.50%
Cardanol 15:2 concentration [1, 4]: 20.90 ppm
Cardanol 15:3 Composition (%) [1, 4]: 5.25%
Cardanol 15:3 concentration [1, 4]: 43.86 ppm
Anacardic Acid 15:1 Composition (%) [1, 5]: 30.33%
Anacardic Acid 15:1 concentration [1, 5]: 272.03 ppm
Anacardic Acid 15:2 Composition (%) [1, 5]: 10.57%
Anacardic Acid 15:2 concentration [1, 5]: 94.78 ppm
Anacardic Acid 15:3 Composition (%) [1, 5]: 24.25%
Anacardic Acid 15:3 concentration [1, 5]: 217.48 ppm
Cardanol 15:1 Composition (%) [1, 5]: 15.59%
Cardanol 15:1 concentration [1, 5]: 139.84 ppm
Cardanol 15:2 Composition (%) [1, 5]: 5.66%
Cardanol 15:2 concentration [1, 5]: 50.74 ppm
Cardanol 15:3 Composition (%) [1, 5]: 13.62%
Cardanol 15:3 concentration [1, 5]: 122.16 ppm
Anacardic Acid 15:1 Composition (%) [1, 6]: 39.70%
Anacardic Acid 15:1 concentration [1, 6]: 250.76 ppm
Anacardic Acid 15:2 Composition (%) [1, 6]: 14.24%
Anacardic Acid 15:2 concentration [1, 6]: 89.95 ppm
Anacardic Acid 15:3 Composition (%) [1, 6]: 32.59%
Anacardic Acid 15:3 concentration [1, 6]: 205.85 ppm
Cardanol 15:1 Composition (%) [1, 6]: 5.45%
Cardanol 15:1 concentration [1, 6]: 34.40 ppm
Cardanol 15:2 Composition (%) [1, 6]: 2.70%
Cardanol 15:2 concentration [1, 6]: 17.07 ppm
Cardanol 15:3 Composition (%) [1, 6]: 5.31%
Cardanol 15:3 concentration [1, 6]: 33.53 ppm
Anacardic Acid 15:1 Composition (%) [1, 7]: 39.12%
Anacardic Acid 15:1 concentration [1, 7]: 267.36 ppm
Anacardic Acid 15:2 Composition (%) [1, 7]: 13.52%
Anacardic Acid 15:2 concentration [1, 7]: 92.36 ppm
Anacardic Acid 15:3 Composition (%) [1, 7]: 31.14%
Anacardic Acid 15:3 concentration [1, 7]: 212.78 ppm
Cardanol 15:1 Composition (%) [1, 7]: 6.81%
Cardanol 15:1 concentration [1, 7]: 46.56 ppm
Cardanol 15:2 Composition (%) [1, 7]: 3.24%
Cardanol 15:2 concentration [1, 7]: 22.13 ppm
Cardanol 15:3 Composition (%) [1, 7]: 6.17%
Cardanol 15:3 concentration [1, 7]: 42.19 ppm
Compound: O=C(O)C(O)C(O)C(=O)O (stereo not drawn) [Tartaric Acid, tartaric acid]
